Patent US10458916B2, “Rapid tests for the detection of inhibitors of enzymes and human exposure to the same” (priority 2011, dated 2019)

Experiments:
[1] = target: T1, AChE (Electrophorus electricus, UniProt O42275); experiment: Rapid ticket test for AChE inhibitors with lyophilized AChE and NMI substrate discs, hue ratio by reader; conditions: without oxidation
Experimental: Filter discs ( 3/16″ diameter) of porous matrix Surewick Sample Pad C248 SA3J035V06 (Millipore). were punched from sheets using a manual punch and die.
N-methyl indoxyl (NMI) acetate (100 mg, Sigma-Aldrich) was dissolved in 100 mL 200 proof (100%) USP ethyl alcohol (Sigma-Aldrich) for a final concentration of 1 mg/mL and added to the beaker containing the filter pads. The filter discs were mixed gently with a spatula for five minutes. The discs were then carefully removed from the solution and spread out on a polystyrene sheet and dried at 45° C. for two hours. The filter discs were then removed from the oven and stored in a resealable plastic bag with desiccant. […]
The tickets were allowed to react for 15 minutes at room temperature and then inserted into the handheld fluorescence reader comprised of low light color cameras, 400 nm UV LED and custom color analysis software (FIG. 2). Enzyme inhibition was detected by the difference in the hue measurement of the Test Sample compared to the negative control (FIG. 4). The reader calculates a ratio of the hue measured in the test sample well to the hue measured in the negative control well.
Analysis was alternatively performed by visual observation of the ticket using a 400 nm UV LED flashlight (FIGS. 7 and 8). Visually, inhibition was detected directly based on the decrease in fluorescence of the test sample compared to the negative control.

[2] = test system: Carboxylesterase (CE); experiment: Rapid ticket test with lyophilized carboxylesterase (CE) and NMI substrate discs, no sample oxidation; conditions: without oxidation
[3] = target: T2, cholinesterase in human plasma (Homo sapiens, UniProt P06276); experiment: Detection of cholinesterase inhibition in spiked human plasma on the NMI ticket; format: biochemical; conditions: human plasma pool spiked to final 100 ppm oxamyl, incubated overnight (22 hours) at room temperature; control zone unspiked pool
T2 construct: from tissue; host or cells: human plasma pool
T2 sequence (P06276 29-602): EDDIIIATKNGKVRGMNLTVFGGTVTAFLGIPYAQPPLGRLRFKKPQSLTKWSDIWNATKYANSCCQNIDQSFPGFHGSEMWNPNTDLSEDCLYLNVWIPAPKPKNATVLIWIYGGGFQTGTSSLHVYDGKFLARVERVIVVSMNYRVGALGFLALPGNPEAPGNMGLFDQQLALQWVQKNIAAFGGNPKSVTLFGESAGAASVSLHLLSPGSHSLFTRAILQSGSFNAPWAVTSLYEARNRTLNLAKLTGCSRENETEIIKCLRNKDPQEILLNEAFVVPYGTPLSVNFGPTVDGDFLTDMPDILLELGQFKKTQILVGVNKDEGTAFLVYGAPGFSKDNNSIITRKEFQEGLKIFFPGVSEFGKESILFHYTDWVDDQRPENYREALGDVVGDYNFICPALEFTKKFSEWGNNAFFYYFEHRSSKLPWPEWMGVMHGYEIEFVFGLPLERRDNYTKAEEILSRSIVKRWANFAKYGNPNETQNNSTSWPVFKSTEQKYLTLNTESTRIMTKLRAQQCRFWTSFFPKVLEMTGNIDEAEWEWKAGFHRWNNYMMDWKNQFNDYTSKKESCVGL

[4] = target: T1, AChE; experiment: Effect of heating the AChE reaction vials on time of detection of a positive sample; format: biochemical, eel; design: purchased Sigma-Aldrich; conditions: 0.1 ppm oxamyl in water; for Detection result, Heated: heating block 40° C.; for Detection result, Not Heated: room temperature (21° C.)
Experimental: Water obtained from reverse osmosis treatment was spiked with 0.1 ppm oxamyl, a carbamate pesticide. The pesticide-contaminated sample was tested using the procedure described in Example 4. Two sets of two reagent vials containing AChE were opened. To the first vial of each set was added 1 mL of the test sample containing pesticide. To the second vial of each set was added 1 mL of a negative control water. All vials were thoroughly mixed. One set of vials was placed in a heating block set at 40° C., while the other set of vials was allowed to stand at room temperature (21° C.). From each set of vials, 50 μL was sampled at 5, 10, 15, and 20 minutes and transferred to corresponding reaction zones in test tickets. After 15 minutes incubation, the fluorescence in the reaction zones of each ticket were measured on a reader.

T1 sequence (O42275 24-633): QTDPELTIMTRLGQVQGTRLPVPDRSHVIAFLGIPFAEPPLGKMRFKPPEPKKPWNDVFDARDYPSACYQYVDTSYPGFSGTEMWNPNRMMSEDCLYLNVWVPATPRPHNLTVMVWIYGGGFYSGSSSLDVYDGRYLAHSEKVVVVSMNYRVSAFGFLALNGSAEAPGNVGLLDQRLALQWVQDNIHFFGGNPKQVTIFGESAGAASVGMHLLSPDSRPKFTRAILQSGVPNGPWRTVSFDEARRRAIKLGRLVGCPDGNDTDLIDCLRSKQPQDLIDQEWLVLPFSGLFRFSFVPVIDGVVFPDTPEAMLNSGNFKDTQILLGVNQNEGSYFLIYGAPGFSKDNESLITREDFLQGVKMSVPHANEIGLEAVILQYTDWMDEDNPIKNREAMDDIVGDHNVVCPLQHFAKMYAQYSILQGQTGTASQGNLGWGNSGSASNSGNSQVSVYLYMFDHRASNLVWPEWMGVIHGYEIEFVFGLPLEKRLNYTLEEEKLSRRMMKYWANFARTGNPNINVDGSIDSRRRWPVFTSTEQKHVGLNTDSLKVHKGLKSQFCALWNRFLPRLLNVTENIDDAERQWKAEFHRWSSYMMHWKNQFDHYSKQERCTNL

For `CNC(=O)O/N=C/C(C)(C)SC` [Aldicarb, aldicarb], the “Reaction with AChE (in words)” value [1] was “react strongly with AChE”.
`COP(N)(=O)SC` (stereo not shown) [Methamidophos, methamidophos] was tested, and the “Reaction with CE compared with AChE (in words)” value [2] was “react more strongly with CE than with AChE”.
For `COP(=S)(OC)Oc1ccc([N+](=O)[O-])cc1` [Methyl Parathion, methyl parathion], the “Reaction with CE compared with AChE (in words)” value [2] was “react more strongly with CE than with AChE”.
With `CNC(=O)O/N=C(\SC)C(=O)N(C)C` [Oxamyl, oxamyl] the hue ratio [3] was 3.10, the “Detection result, Heated” value ([4]; 5 min) was “positive” and the “Detection result, Heated” value ([4]; 10 min) was “positive”. For the same compound, the “Detection result, Heated” value ([4]; 15 min) was “positive”, the “Detection result, Heated” value ([4]; 20 min) was “positive” and the “Detection result, Not Heated” value ([4]; 5 min) was “negative”. For the same compound, the “Detection result, Not Heated” value ([4]; 10 min) was “negative”, the “Detection result, Not Heated” value ([4]; 15 min) was “positive” and the “Detection result, Not Heated” value ([4]; 20 min) was “positive”. For the same compound, the “Reaction with AChE (in words)” value [1] was “react strongly with AChE”.
